Test results: patent US20250102494A1, “COMPOSITION FOR PREDICTING OXALIPLATIN DRUG EFFICACY, AND USE THEREOF” (SAMSUNG LIFE PUBLIC WELFARE FOUNDATION, priority 2022, published 2025)
Like-named read-outs stand apart in the source and are kept apart here.

Test system: HCT116 cells
Assay: ATPlite cell viability after drug treatment, HCT116 cells in cell-line or organoid culture media
Assay type: cell-based
Design: AUC 1st / AUC 2nd / AUC 3rd / AUC Average: unit not given here
Description: Advanced DMEM/F12+++ (hereinafter referred to as “Ad/DF+++”) was used to produce colorectal cancer organoids. Ad/DF+++ was refrigerated at 4° C. until use, and was used in a cold state during cell washing. Ad/DF+++ medium containing the reagents shown in Table 1 below along with Ad/DF 1× (Gibco) was prepared.
After preparing the Ad/DF+++ medium containing the above reagents, an appropriate amount of Matrigel (Corning #356231) was added so that the ratio between Matrigel and cells suspended in the Ad/DF+++ medium was 7:3. Then, the cells were plated on low attachment well plates at an appropriate density. The density and the type and number of well plates were determined according to the characteristics of each cell type. The medium was prepared according to the composition shown in Table 2 below, and the cells were cultured (expanded) until the required level was reached while the medium was replaced every 3 to 4 days.
If the organoids were expanded as needed for the experiment, the medium was carefully removed, taking care not to touch the Matrigel. The cells were separated from the Matrigel by pipetting about 20 times with 1 ml of cold Ad/DF+++. The cells in 1 to 4 wells per 6-well plate were collected in one 50 ml tube. If cells are collected from more than 4 wells into one tube, the Metrigel may not be washed properly. For this reason, the cells were placed in several tubes. Thereafter, Ad/DF+++ was poured to 20 to 50 ml of each tube, followed by centrifugation at 400 g for 3 minutes at 4° C. The cells were dissociated with 1 to 2 mL of TrypLE™ Express Enzyme (Gibco, 1264-013), transferred to low-attachment 24 well plates, and then treated with 10 μM of Y-27632. Next, the cells were cultured in a CO2 incubator for 5 minutes at 37° C. After pipetting about 20 times, whether the cells would be dissociated into single cells was checked by microscopic observation. If the cells were not dissociated into single cells, the culture under CO2 and pipetting processes were repeated. After the single cells were transferred into 15-ml tubes, Ad/DF+++ was filled to 10 to 15 ml of each tube, followed by centrifugation at 400 g at 4° C. for 3 minutes. After suspending the pellet in Ad/DF+++, the cells were counted and diluted with medium according to the required number of cells.
12 hours after seeding in Experimental Example 1-2 above, the medium was changed with the medium shown in Table 3 below, followed by culturing to produce organoids.
Four hours after the medium change, the cells were treated with oxaliplatin, 5-FU, Irinotecan, and folinic acid. Five days after drug treatment, intracellular ATP expression was determined using the ATPlite assay kit (PerkinElmer), and the data were expressed in terms of cell viability, IC50, and AUC.
As the standard for confirming that cells are sensitive to the drug, the response of the cells to the drug was assumed to be 100%, and the luminescence value of surviving cells after drug treatment was analyzed and compared with the quantified drug response value.
Based on the assumption that the factor that increases the resistance of the organoids to oxaliplatin is an activator or inhibitor that changes the phenotype, the organoids prepared by excluding some or all of activators and inhibitors as shown in Table 4 below were treated with oxaliplatin.
In order to identify the factors that reduce the resistance to oxaliplatin of the Ex2 organoid, activators or inhibitors that change the phenotype were added one by one to the Ex2 organoid composition, thus producing organoids as shown in Table 8 below. Then, it was checked whether the produced organoids had increased resistance to oxaliplatin.

O=C1[O][Pt]2([NH][C@@H]3CCCC[C@H]3[NH]2)[O]C1=O [oxaliplatin]
AUC value, Ex2 compared with Ex1 (HCT116, FIG. 3): significantly lower AUC values than those of Ex1 | AUC value, Ex3 and Ex4 compared with Ex1 (HCT116, FIG. 3): lower AUC values than Ex1 | IC50 value, Ex2 compared with Ex1 (HCT116, FIG. 4): similarly lowered in Ex2 compared to Ex1 | cell viability versus oxaliplatin concentration (HCT116, McCoys control, Ex1, Ex2, FIG. 5): similarly lowered in the control (McCoys) HCT116 cells and the cells cultured under the organoid culture conditions of Ex2 | AUC 1st (HCT116 cell line in McCoys (control), 1st): 312.3 | IC50 (HCT116 cell line in McCoys (control), 1st, read-out: IC50 (μM) 1st): 24.1 µM | AUC 2nd (HCT116 cell line in McCoys (control), 2nd): 278.4 | IC50 (HCT116 cell line in McCoys (control), 2nd, read-out: IC50 (μM) 2nd): 10.7 µM | AUC 3rd (HCT116 cell line in McCoys (control), 3rd): 307.3 | IC50 (HCT116 cell line in McCoys (control), 3rd, read-out: IC50 (μM) 3rd): 28.8 µM | AUC Average (HCT116 cell line in McCoys (control), average): 299.3 | IC50 (HCT116 cell line in McCoys (control), average, read-out: IC50 (μM) Average): 21.2 µM | AUC 1st (HCT116 in Ex1 (all inhibitors and activators), 1st): 379.7 | IC50 (HCT116 in Ex1 (all inhibitors and activators), 1st, read-out: IC50 (μM) 1st): 133 µM | AUC 2nd (HCT116 in Ex1, 2nd): 379.9 | IC50 (HCT116 in Ex1, 2nd, read-out: IC50 (μM) 2nd): 98 µM | AUC 3rd (HCT116 in Ex1, 3rd): 390.0 | IC50 (HCT116 in Ex1, 3rd, read-out: IC50 (μM) 3rd): 167 µM | AUC Average (HCT116 in Ex1, average): 383.2 | IC50 (HCT116 in Ex1, average, read-out: IC50 (μM) Average): 133 µM | AUC 1st (HCT116 in Ex2 (no inhibitors, no activators), 1st): 319.8 | IC50 (HCT116 in Ex2 (no inhibitors, no activators), 1st, read-out: IC50 (μM) 1st): 27.8 µM | AUC 1st (HCT116 in Ex2-1 (Ex2 + A83-01 500 nM), 1st): 328.0 | IC50 (HCT116 in Ex2-1 (Ex2 + A83-01 500 nM), 1st, read-out: IC50 (μM) 1st): 46 µM | AUC 2nd (HCT116 in Ex2-1, 2nd): 341.6 | IC50 (HCT116 in Ex2-1, 2nd, read-out: IC50 (μM) 2nd): 52.2 µM | AUC 3rd (HCT116 in Ex2-1, 3rd): 342.0 | IC50 (HCT116 in Ex2-1, 3rd, read-out: IC50 (μM) 3rd): 81.8 µM | AUC Average (HCT116 in Ex2-1, average): 337.2 | IC50 (HCT116 in Ex2-1, average, read-out: IC50 (μM) Average): 60 µM | AUC 1st (HCT116 in Ex2-2 (Ex2 + Y-27632 10 μM), 1st): 284.9 | IC50 (HCT116 in Ex2-2 (Ex2 + Y-27632 10 μM), 1st, read-out: IC50 (μM) 1st): 13 µM | AUC 2nd (HCT116 in Ex2-2, 2nd): 320.5 | IC50 (HCT116 in Ex2-2, 2nd, read-out: IC50 (μM) 2nd): 38.4 µM | AUC 3rd (HCT116 in Ex2-2, 3rd): 301.0 | IC50 (HCT116 in Ex2-2, 3rd, read-out: IC50 (μM) 3rd): 16 µM | AUC Average (HCT116 in Ex2-2, average): 302.1 | IC50 (HCT116 in Ex2-2, average, read-out: IC50 (μM) Average): 22.5 µM | AUC 1st (HCT116 in Ex2-3 (Ex2 + SB 202190 10 μM), 1st): 306.6 | IC50 (HCT116 in Ex2-3 (Ex2 + SB 202190 10 μM), 1st, read-out: IC50 (μM) 1st): 30.2 µM | AUC 2nd (HCT116 in Ex2-3, 2nd): 343.3 | IC50 (HCT116 in Ex2-3, 2nd, read-out: IC50 (μM) 2nd): 63.4 µM
